≈ marks a conversion by molar mass, not a printed value.

52 molecules from PubChem BioAssay AID1996 can be followed below.

The conditions of this data set: buffer; pH 7.4; 200.0 µM.
On to `CC(=O)c1ccc(NC(=O)CN2C(=O)NC3(CCCc4ccccc43)C2=O)cc1` (configuration not stated), for which the solubility (kinetic) (commonly solubility judged after dilution from a stock solution rather than from solid) is above 58.7 µg/mL.
Take `Cc1cccc(NC(=O)c2cc[n+]([O-])cc2)c1C`: the kinetic solubility is above 36.3 µg/mL.
The molecule `Cc1ccc(NC(=O)COC(=O)CCc2ccccc2)cc1S(=O)(=O)N1CCOCC1` yielded a solubility (kinetic) of 24.6 µg/mL (≈ 55.1 µM).
For `COc1ccc(NC(=O)O/N=C/c2ccccc2)cc1` the value was 5 µg/mL (≈ 18.5 µM); for `CCOC(=O)C1(CCOC)CCN(Cc2ccncc2)CC1`, above 46 µg/mL.
Consider `O=[N+]([O-])c1ccc(S(=O)(=O)NCC2CC3CCC2C3)cc1` (configuration not stated), for which the solubility (kinetic) is 5.5 µg/mL (≈ 17.7 µM).
For `Nc1ccc(Oc2ccc3c(c2)OCO3)cc1`, the solubility (kinetic) stood at 27.3 µg/mL (≈ 119 µM).
`COc1ccc(Nc2ncnc3ccc([N+](=O)[O-])cc23)c(OC)c1` registered a kinetic solubility of 10.5 µg/mL (≈ 32.2 µM).
In turn, `Cc1nonc1OC(C)CNCCNc1ccc([N+](=O)[O-])cc1.Cl` (configuration not stated) displayed a kinetic solubility above 53.7 µg/mL.
For the molecule `Cc1ccc(C(=O)Nc2cccnc2N2CCN(C)CC2)cc1`, the kinetic solubility was above 46.6 µg/mL.
For `CC1CCCC(C)N1S(=O)(=O)c1ccc(Cl)cc1` (configuration not stated) the value was 2.7 µg/mL (≈ 9.38 µM).
On to `Cc1ccc(NC(=O)CCc2ccc(S(=O)(=O)N3CCOCC3)cc2)c(Cl)c1`, for which the kinetic solubility worked out at 6.1 µg/mL (≈ 14.4 µM).
In turn, `COc1ccc(NC(=O)COC(=O)C2=COCCO2)cc1OC` displayed a solubility (kinetic) above 48.5 µg/mL.
The molecule `CCCOC(=O)Nc1cc(OC)ccc1[N+](=O)[O-]` had a solubility (kinetic) of 5.7 µg/mL (≈ 22.4 µM).
For `Fc1cccc(/C=C2\CCCC3=C2NC(=S)NC3c2cccc(F)c2)c1` (configuration not stated) the value was 7 µg/mL (≈ 19 µM).
The molecule `O=C(COC(=O)/C=C/c1cccc(C(F)(F)F)c1)NC(=O)NCc1ccco1` had a solubility (kinetic) of 4.5 µg/mL (≈ 11.4 µM).
For `O=C(c1csc(Nc2cccc3ccccc23)n1)N1CCCC1`, the kinetic solubility stood at 13.1 µg/mL (≈ 40.5 µM).
In turn, `CCC1Sc2ccccc2N(CC(=O)NC2CC2)C1=O` (configuration not stated) yielded a solubility (kinetic) of 39.6 µg/mL (≈ 136 µM).
On to `Cc1cc(C)c(C#N)c(Nc2ccc(F)cc2)n1`, for which the kinetic solubility came to 0.8 µg/mL (≈ 3.32 µM).
As to `C=CCn1c(SCC#N)nc2sc(CC)cc2c1=O`, the kinetic solubility amounted to 7 µg/mL (≈ 24 µM).
In turn, `CCCCNc1nc2c(c(=O)n(Cc3ccccc3)c(=O)n2C)n1C` displayed a solubility (kinetic) of 4.1 µg/mL (≈ 12 µM).
The molecule `CCOC(=O)c1cccc(N2C(=O)C3C4C=CC(CC4)C3C2=O)c1` (configuration not stated) yielded a kinetic solubility of 3.7 µg/mL (≈ 11.4 µM).
The molecule `N#C/C(=C/c1ccc(O)cc1)C(=O)NCc1ccc(Cl)cc1` came in with a solubility (kinetic) of 4.3 µg/mL (≈ 13.7 µM).
The figure for `CC1CCN(C(=O)NC(=O)c2ccccc2)CC1` is above 36.9 µg/mL; for `Cc1ccc(Sc2nc(C)c([N+](=O)[O-])c(C)c2C#N)cc1` it is 0.7 µg/mL (≈ 2.34 µM); for `Cc1ccc(-c2csc3ncn(CC(N)=O)c(=O)c23)cc1C` it is above 47 µg/mL.
Regarding `COC(=O)c1cc(NC(=O)c2c(C)noc2C)ccc1N1CCOCC1`, the kinetic solubility is above 53.9 µg/mL.
For `C=CCNC(=O)COC(=O)c1cccnc1Nc1ccccc1F` the value was 17.9 µg/mL (≈ 54.4 µM).
The molecule `Cc1cc(Cl)ccc1C(=O)C1CCCN(C(=O)c2ccoc2)C1` (configuration not stated) returned a solubility (kinetic) of 35.7 µg/mL (≈ 108 µM).
As to `CC(=O)C1=C(c2ccccc2)NC(=O)NC1c1ccccc1` (configuration not stated), the kinetic solubility was above 43.9 µg/mL.
Turning to `Cc1ccc(NC(=O)C2C3CCC(O3)C2C(=O)O)cc1C` (configuration not stated), the kinetic solubility was above 43.4 µg/mL.
The molecule `CCOc1ccccc1NC(=O)C(c1ccccc1)N1CCN(CC(=O)N2CCCC2)CC1` (configuration not stated) showed a solubility (kinetic) above 67.6 µg/mL.
In turn, `COc1cccc(NC(=S)NC(=O)/C=C/c2ccco2)c1` registered a solubility (kinetic) of 11.2 µg/mL (≈ 37 µM).
For `CC1CCN(CC#CCOc2ccc(Cl)cc2)CC1.O=C(O)C(=O)O` the value was 16.3 µg/mL.
For `Cc1ccc2c(c1)c(C1=c3ccccc3=NC1=O)c(O)n2C` the value was 1.1 µg/mL (≈ 3.79 µM); for `Cc1ccc(NC(=S)c2ccncc2)c(C)c1`, 34.2 µg/mL (≈ 141 µM).
Molecule `CC(C)(C)c1ccc(C2=NC(=O)C(CC(=O)O)S2)cc1` (configuration not stated) registered a solubility (kinetic) of 37.4 µg/mL (≈ 128 µM).
In turn, `COc1ccc(N2C(=O)C(C)C(Cc3ccc(C)cc3)C2=O)cc1` (configuration not stated) gave a solubility (kinetic) of 2.4 µg/mL (≈ 7.42 µM).
As to `CC(C)c1ccc(N2C(=O)CC(Sc3ncccn3)C2=O)cc1` (configuration not stated), the kinetic solubility turned out to be 4 µg/mL (≈ 12.2 µM).
The figure for `O=C(O)CNC(=S)N(Cc1ccccc1)Cc1ccccc1F` is 47.4 µg/mL (≈ 143 µM); for `COc1ccc(CC(=O)Nc2cccnc2)cc1` it is above 36.3 µg/mL; for `CCCc1cc(=O)[nH]c(SC/C=C/c2ccccc2)n1` it is 1.9 µg/mL (≈ 6.63 µM).
Regarding `CC(C)COC(=O)N1C[C@H](O)C[C@H]1C(=O)Nc1ccc(Cl)cc1`, the kinetic solubility was above 51.1 µg/mL.
The molecule `COc1ccc(C2(CNC(=O)c3ccc(N)cc3)CCCC2)cc1` registered a solubility (kinetic) of 26.7 µg/mL (≈ 82.3 µM).
`O=C1NC(=O)C(Cc2cccc(Oc3ccccc3)c2)S1` (configuration not stated): the solubility (kinetic) was above 44.9 µg/mL.
In turn, `Cc1ccc(-n2c(C)nn(CC#N)c2=O)cc1` gave a kinetic solubility above 34.2 µg/mL.
`O=C(O)Cc1sc(-c2ccccc2)nc1-c1cccs1` registered a solubility (kinetic) above 45.2 µg/mL.
As for `CC(CCc1ccccc1)NC(=O)c1ccccc1C(=O)O` (configuration not stated), the solubility (kinetic) was above 44.6 µg/mL.
Regarding `O=C1CSC(=S)N1c1ccc(F)c(Cl)c1`, the solubility (kinetic) came to 1.3 µg/mL (≈ 4.97 µM).
The figure for `CCc1ccc(C(=O)N2CCCN(C)CC2)s1` is above 37.9 µg/mL.
The figure for `Cc1cc(/C(N)=N/OC(=O)c2ccc(Cl)cc2)no1` is 1.6 µg/mL (≈ 5.72 µM); for `O=C(NCCCCc1ccccc1)c1ccccc1Cl` it is above 43.2 µg/mL.
